Source: ChEMBL document CHEMBL1201862, “PubChem BioAssay data set” (2004)
The source made the active and inactive calls.

What was measured:
[1] = target: NADPH oxidase 1 (Homo sapiens, UniProt Q9Y5S8); type: functional, cell-based;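 note: Cell-based assay with luminescence read-out, IC50 derived from inhibitor dose-response curves; intracellular ROS from endogenous NOX1 in intact HT29 colon cancer cells; potency of inhibitors that lower the ROS luminescence signal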
[2] = M. tuberculosis H37Rv growth inhibitors, H37Rv strain (AID 1626); type: functional
[3] = inhibitors of Bluetongue virus cytopathic effect, confirmation, arbovirus, BSR cells (AID 1250); type: functional;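 note: protection from viral cytopathic effect measured as cell viability by ATP luminescence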
[4] = target: Melanocortin receptor 4 (Homo sapiens, UniProt P32245); test: MC4R antagonist potency on cAMP, dose response, cell-based, TR-FRET, biased antagonists (AID 602298); type: functional;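 note: antagonist potency against agonist-stimulated cAMP production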
Chain of Melanocortin receptor 4 (P32245 whole entry): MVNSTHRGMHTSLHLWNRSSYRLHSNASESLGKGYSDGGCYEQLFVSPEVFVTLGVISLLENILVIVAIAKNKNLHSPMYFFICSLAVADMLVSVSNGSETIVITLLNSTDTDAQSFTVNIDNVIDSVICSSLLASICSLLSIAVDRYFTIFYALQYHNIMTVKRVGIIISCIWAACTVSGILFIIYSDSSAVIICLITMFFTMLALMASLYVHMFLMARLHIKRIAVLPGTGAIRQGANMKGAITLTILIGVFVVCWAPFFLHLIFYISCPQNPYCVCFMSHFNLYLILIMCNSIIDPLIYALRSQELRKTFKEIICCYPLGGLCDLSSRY

[5] = target: T1, Aminopeptidase N (Plasmodium falciparum FcB1/Columbia, UniProt O96935); test: P. falciparum M1AAP inhibitors, biochemical, fluorogenic H-Leu-NHMec substrate, 1536-well (AID 1445); design: species or system Plasmodium falciparum 3D7, 3D7
T1 sequence (O96935 whole entry): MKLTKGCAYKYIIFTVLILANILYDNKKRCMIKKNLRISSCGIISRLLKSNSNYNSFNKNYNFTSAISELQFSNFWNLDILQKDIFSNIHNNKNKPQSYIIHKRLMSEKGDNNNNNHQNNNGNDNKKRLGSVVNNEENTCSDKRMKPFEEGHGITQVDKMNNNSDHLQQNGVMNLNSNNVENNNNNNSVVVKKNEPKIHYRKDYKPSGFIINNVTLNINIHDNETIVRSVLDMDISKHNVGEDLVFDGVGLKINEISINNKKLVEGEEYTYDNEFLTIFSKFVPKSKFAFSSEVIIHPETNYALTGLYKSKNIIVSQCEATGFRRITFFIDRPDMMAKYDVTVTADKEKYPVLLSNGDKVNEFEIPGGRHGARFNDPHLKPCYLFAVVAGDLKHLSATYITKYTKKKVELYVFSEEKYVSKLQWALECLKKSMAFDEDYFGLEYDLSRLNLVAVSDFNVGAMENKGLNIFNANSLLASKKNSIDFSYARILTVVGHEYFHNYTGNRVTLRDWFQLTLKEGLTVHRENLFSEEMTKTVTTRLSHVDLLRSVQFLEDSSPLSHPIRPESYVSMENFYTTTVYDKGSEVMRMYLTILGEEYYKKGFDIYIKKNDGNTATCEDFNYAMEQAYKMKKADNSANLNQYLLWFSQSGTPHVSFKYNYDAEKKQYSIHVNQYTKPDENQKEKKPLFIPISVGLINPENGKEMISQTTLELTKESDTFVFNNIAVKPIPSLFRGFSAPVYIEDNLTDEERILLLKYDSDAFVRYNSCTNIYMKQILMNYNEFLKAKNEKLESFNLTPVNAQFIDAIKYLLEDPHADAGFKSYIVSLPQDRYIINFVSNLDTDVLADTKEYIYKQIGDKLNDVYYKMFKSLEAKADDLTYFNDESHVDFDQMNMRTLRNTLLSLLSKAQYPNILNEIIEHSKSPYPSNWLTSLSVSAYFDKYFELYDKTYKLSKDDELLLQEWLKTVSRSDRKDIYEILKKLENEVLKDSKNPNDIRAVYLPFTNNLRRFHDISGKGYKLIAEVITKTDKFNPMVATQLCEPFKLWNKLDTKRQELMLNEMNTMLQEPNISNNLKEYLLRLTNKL

[6] = nonselective inhibitors of cellular cAMP signaling, dose response, counter-screen for MC4R biased antagonist project, cell-based, TR-FRET cAMP detection (AID 602305); type: functional;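 note: U2OS cells stimulated with forskolin near its EC80 as the cAMP inducer; potency is for inhibition of forskolin-stimulated cAMP signaling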
[7] = target: Inward rectifier potassium channel 2 (Mus musculus, UniProt P35561); test: Manual electrophysiological patch clamp assay for SAR compounds that inhibit/block inward-rectifying potassium ion channel Kir2.1. [Related pubchem assays: 1843 (Summary assay for Kir2.1 inhibitor assays.), 1672 (Primary HTS of 305616 compounds where 2592 were identified as active.)]; type: functional
Chain of Inward rectifier potassium channel 2 (P35561 whole entry): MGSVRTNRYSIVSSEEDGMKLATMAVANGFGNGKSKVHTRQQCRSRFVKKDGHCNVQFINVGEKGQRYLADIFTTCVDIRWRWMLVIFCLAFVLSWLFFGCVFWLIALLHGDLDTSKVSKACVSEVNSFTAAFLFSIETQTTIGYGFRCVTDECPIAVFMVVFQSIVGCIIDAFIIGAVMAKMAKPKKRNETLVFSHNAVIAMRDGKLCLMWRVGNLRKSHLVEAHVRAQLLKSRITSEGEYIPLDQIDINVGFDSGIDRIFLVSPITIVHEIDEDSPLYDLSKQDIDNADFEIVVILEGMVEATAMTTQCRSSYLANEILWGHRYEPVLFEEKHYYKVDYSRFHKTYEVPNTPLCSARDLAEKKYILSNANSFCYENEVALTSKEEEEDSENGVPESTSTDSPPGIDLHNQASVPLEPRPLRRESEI

[8] = target: T2, Neuropeptide Y receptor type 2 (Homo sapiens, UniProt P49146); test: NPY-Y2 antagonist potency, selectivity check, dose response, counter-screen for NPY-Y1 antagonist project, cell-based (AID 1278); type: functional
T2 sequence (P49146 whole entry): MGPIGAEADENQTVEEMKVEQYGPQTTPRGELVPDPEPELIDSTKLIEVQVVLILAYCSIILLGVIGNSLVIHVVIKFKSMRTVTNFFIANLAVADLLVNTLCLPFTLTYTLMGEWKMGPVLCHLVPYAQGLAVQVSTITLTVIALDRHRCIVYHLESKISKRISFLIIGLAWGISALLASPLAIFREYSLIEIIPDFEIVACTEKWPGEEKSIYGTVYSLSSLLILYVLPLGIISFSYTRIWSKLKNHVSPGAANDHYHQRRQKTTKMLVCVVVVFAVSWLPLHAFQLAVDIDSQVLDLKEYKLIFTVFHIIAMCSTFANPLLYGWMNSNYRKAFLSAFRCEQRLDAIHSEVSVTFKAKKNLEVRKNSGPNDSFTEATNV

[9] = target: T3, Neuropeptide Y receptor type 1 (Homo sapiens, UniProt P25929); test: NPY-Y1 receptor antagonist potency, dose response, cell-based (AID 1277); type: functional
T3 sequence (P25929 whole entry): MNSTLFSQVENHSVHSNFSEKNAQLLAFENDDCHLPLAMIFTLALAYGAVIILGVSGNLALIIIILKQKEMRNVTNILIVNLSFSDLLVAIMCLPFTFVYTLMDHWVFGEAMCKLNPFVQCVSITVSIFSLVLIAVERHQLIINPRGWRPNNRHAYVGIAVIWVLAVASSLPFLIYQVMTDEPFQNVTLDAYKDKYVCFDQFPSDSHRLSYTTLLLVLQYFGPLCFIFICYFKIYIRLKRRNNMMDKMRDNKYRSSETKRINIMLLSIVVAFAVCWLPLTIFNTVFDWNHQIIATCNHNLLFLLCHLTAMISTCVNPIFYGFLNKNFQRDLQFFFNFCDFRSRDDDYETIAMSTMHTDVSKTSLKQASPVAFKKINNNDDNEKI

[10] = inhibitors of intracellular T. cruzi replication, confirmation, NIH3T3 host cells, beta-gal luminescence (AID 2044); type: functional, cell-based;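 note: intracellular parasites grown in NIH/3T3 mouse fibroblasts as host cells; luminescent beta-galactosidase reporter signal from transgenic T. cruzi replicating inside host cells; inhibitors lower the luminescence signal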
[11] = test system: INS1; test: beta cell apoptosis inhibitors, cytokine rescue, dose response, luminescence, retest (AID 449756); type: functional, cell-based; details: Rattus norvegicus;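 note: cell death triggered by IL-1 beta plus TNF-alpha plus IFN-gamma mixture; protective hits raise ATP signal compared with cytokine alone wells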
[12] = cytotoxicity in HEK-293T cells, dose response, cytotoxicity control for BCR NF-kB inhibitor project, luminescence, B-cell screen hits (AID 489021); type: functional, cell-based;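 note: HEK-293T cells carrying an NF-kB luciferase reporter; cells exposed to compound for about 14 hours before viability readout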
[13] = NIH-3T3 fibroblast cytotoxicity, dose response, cytotoxicity control, cell-based, fluorescence, Alamar Blue, secondary assay (AID 2327); type: functional;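 note: NIH-3T3 mouse fibroblasts cultured with fluconazole at 8 µg/mL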
[14] = cells; type: functional, cell-based; details: HEK-CNG
[15] = target: Protein Wnt-3a (Mus musculus, UniProt P27467); test: Wnt3a-driven reporter signaling inhibition, dose response, selectivity assay for Gli-SUFU antagonist project, Wnt-LIGHT cells, luminescence (AID 651570); type: functional; details: read-out: IC50_Mean;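 note: Wnt-LIGHT reporter cells stimulated with conditioned medium from Wnt3a-producing cells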
Chain of Protein Wnt-3a (P27467 whole entry): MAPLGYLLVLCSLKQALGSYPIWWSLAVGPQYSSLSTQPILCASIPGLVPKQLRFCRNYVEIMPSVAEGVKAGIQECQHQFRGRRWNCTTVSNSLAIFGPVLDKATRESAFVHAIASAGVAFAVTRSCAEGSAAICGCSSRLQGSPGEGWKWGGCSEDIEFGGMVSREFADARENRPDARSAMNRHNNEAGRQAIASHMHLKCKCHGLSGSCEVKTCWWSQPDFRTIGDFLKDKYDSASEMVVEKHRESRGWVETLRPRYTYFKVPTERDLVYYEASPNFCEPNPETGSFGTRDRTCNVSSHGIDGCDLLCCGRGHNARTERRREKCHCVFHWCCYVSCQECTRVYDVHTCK

[16] = target: T4, Galanin receptor type 3 (Homo sapiens, UniProt O60755); test: Fluorescence-based cell-based primary high throughput dose response assay to identify antagonists of the Galanin Receptor 3 (GalR3).; type: functional
T4 sequence (O60755 whole entry): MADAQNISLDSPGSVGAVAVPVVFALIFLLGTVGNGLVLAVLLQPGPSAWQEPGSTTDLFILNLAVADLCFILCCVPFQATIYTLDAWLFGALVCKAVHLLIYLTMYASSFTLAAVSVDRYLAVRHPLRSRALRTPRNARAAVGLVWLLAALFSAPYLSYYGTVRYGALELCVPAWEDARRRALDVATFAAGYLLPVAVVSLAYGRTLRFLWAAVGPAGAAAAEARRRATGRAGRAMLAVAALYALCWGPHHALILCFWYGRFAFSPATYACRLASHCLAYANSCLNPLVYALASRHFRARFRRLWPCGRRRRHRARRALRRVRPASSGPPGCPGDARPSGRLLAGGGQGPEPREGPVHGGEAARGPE

[17] = cytotoxicity toward NIH3T3 fibroblasts, dose response, counter-screen, cell-based, ATP luminescence, mouse fibroblasts (AID 2010); type: functional;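 note: cells exposed to compound for about 90 hours before reading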

Chain of NADPH oxidase 1 (Q9Y5S8 whole entry): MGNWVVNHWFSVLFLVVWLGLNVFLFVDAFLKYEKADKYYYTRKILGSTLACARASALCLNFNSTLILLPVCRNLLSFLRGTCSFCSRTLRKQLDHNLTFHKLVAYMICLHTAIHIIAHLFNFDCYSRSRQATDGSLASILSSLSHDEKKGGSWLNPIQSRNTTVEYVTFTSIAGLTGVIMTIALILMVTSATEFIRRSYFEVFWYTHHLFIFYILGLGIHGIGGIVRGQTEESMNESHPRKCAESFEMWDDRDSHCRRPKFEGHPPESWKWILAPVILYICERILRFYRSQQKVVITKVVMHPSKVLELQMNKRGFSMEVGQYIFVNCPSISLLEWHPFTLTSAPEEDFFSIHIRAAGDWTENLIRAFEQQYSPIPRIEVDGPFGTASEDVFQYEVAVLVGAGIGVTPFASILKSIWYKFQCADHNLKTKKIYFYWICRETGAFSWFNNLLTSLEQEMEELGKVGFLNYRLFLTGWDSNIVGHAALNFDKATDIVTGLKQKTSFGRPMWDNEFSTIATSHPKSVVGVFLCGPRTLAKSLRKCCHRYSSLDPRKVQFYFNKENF

Which IC50 [1] does the source give for CC(O)c1ccc2c(c1)Nc1ccccc1S2 (configuration not stated) here?
Its IC50 is 0.363 µM (active).

With CCOc1ccc2nc(NC(=O)CSc3nc(O)c(C#N)c(-c4ccccc4)n3)sc2c1 as the compound, how does the IC50 [2] read?
Its IC50 is > 100 µM (active).

And the IC50 [3]?
Its IC50 is 37.9 µM (active).

And the IC50 [4]?
Its IC50 is > 64.6 µM (inactive).

And the IC50 [5]?
Its IC50 is 24.1 µM (active).

And the IC50 [6]?
Its IC50 is > 64.6 µM (inactive).

With COc1ccc(CNCc2ccc(OC(F)(F)F)cc2)cc1 as the compound, how does the IC50 [7] read?
Its IC50 is 1.64 µM (active).

With COc1ccc(-[n+]2c(-c3ccc(Cl)cc3)cn3c2CCc2ccccc2-3)cc1 as the compound, how does the IC50 [8] read?
Its IC50 is 10.3 µM (not active).

What about the IC50 [9] of the same compound?
Its IC50 is 7.36 µM (active).

And the EC50 [10]?
Its EC50 is 0.24 µM (active).

What about the AC50 [11] of the same compound?
Its AC50 is 2.08 µM (active).

And the IC50 [12]?
Its IC50 is > 80 µM (inactive).

What about the EC50 [13] of the same compound?
The EC50 was > 150 µM (inactive).

And the EC50 [14]?
The EC50 was > 29.9 µM (inactive).

What about the IC50 [15] of the same compound?
Its IC50 is 25.6 µM (inactive).

And the IC50 [16]?
Its IC50 is 5.02 µM (active).

What about the EC50 [17] of the same compound?
The EC50 was > 60 µM (not active).
